Source: PMC2867956, “Interdomain Interactions Control Ca^2+-Dependent Potentiation in the Cation Channel TRPV4” (PLoS ONE, 2010)
Entries after “also recorded” stand apart in the source; their conditions may differ. No end group written: not given here.

Tests used:
TRPV4 C2 fragment = assay: AlphaScreen interdomain interaction with C2; assay type: binding, human; details: 10 nM C2-biotin, N2-Flag 30 pM to 1.5 µM, N3 data not shown
Source text: (§1) First, we did a complementation experiment to test whether a CaM molecule that binds to the C2 fragment of TRPV4 through its C-lobe can form an additional interaction with another CaM binding domain thus forming a ternary complex. […] We used an AlphaScreen-based proximity assay (Fig. 2, Methods S1) in which the acceptor beads were coated with the C-terminal fragment C2-Flag, and the donor beads either with the N-terminal CaM binding peptide P2-biotin, or, as a negative control, with C2-biotin. The interaction between the proteins was measured in the presence of increasing CaM concentrations in 100 µM Ca^2+ or 1 mM EGTA (Fig. 3A).
In an AlphaScreen interaction experiment, donor and acceptor beads were incubated with 10 nM C2-biotin and N2-Flag at concentrations ranging from 30 pM to 1.5 µM, respectively (Fig. 3C).
(§2) Proteins were expressed in E. coli, affinity purified and biotinylated if applicable (for details see Methods S1). For protein interaction measurements, a proximity assay system based on the AlphaScreen technology (PerkinElmer) was used (see Methods S1). Briefly, streptavidin-coated AlphaScreen donor and anti-Flag acceptor beads at a final concentration of 16.7 µg/ml were incubated in a 384-well plate format (OptiPlate-384, PerkinElmer) with C2-GST-biotin or P2-biotin and the respective Flag-tagged interaction protein at concentrations of 10 nM, if not otherwise indicated. Assay buffer conditions were 50 mM Tris, pH 7.4, 100 mM KCl, and 0.1% BSA. After incubation for 90 min at room temperature, the AlphaScreen output signal was recorded in a Fusion alpha FP instrument (PerkinElmer) at 2 s reading time per well. AlphaScreen signals are given as mean±SEM in counts per second (cps) units.
The expression plasmids containing the cDNA for CaM or TRPV4 fragments in the pGEX-2TK vector (Amersham) or a modified derivative that contains an in-frame Flag epitope 5’ to the multiple cloning site were transformed into the BL21(DE3) Escherichia coli host, and protein expression was induced by 200 mg/ml IPTG at an OD600 of 0.6. […] The GST-Flag fusion proteins were eluted with 50 mM Tris, pH 8.5, 100 mM KCl, and 10 mM glutathione. […] The purity of all proteins was confirmed by SDS-polyacrylamide gel electrophoresis and Coomassie staining, and the protein concentration determined by the method according to Bradford using an albumin concentration standard. […]
To establish an improved interaction assay, that allows the quantification of protein interactions on a medium to high throughput scale, a commercially available proximity assay system based on the AlphaScreen (Amplified Luminescent Proximity Homogenous Assay) technology (PerkinElmer) was modified. […]

CaM/C2 complex = assay: AlphaScreen competition, C2-Flag/CaM-biotin complex; assay type: binding, human; details: C2-Flag and CaM-biotin at 100 µM Ca^2+; untagged competitor; AlphaScreen pH 7.4, 90 min room temperature
Description: (§3) AlphaScreen acceptor and donor beads were coated with C2-Flag and either P2-biotin (Fig. 7D) or CaM-biotin at 100 µM Ca^2+ (Fig. 7E) and incubated with untagged C2 or N2 competitor proteins at the indicated concentrations. […] A similar finding was observed when the CaM/C2 interaction was subjected to competition by C2 or N2 (Fig. 7E).
as §2
Proteins used for competition experiments were subjected to gel filtration into the assay buffer using a PD-10 column (Amersham).

N2 = assay: Gel filtration, N2 dimerization; assay type: physicochemical, human; details: non-denaturing, 50 mM sodium phosphate pH 7.0, 200 mM KCl
Description: Purified proteins or gel filtration standard (BioRad) were loaded onto a Bio-Sil 250 (BioRad) size exclusion chromatography column and eluted with a buffer containing 50 mM sodium phosphate, pH 7.0 and 200 mM KCl. The elution profile was recorded by continuous absorption measurement at 280 nm.

P2/C2 complex = assay: AlphaScreen competition, C2-Flag/P2-biotin complex; assay type: binding, human; details: read-out: IC50, competition of P2/C2 complex; C2-Flag and P2-biotin; untagged competitor; AlphaScreen pH 7.4, 90 min room temperature
Source text: as §1, §3
Proteins were expressed in E. coli, affinity purified and biotinylated if applicable (for details see Methods S1). For protein interaction measurements, a proximity assay system based on the AlphaScreen technology (PerkinElmer) was used (see Methods S1). […] After incubation for 90 min at room temperature, the AlphaScreen output signal was recorded in a Fusion alpha FP instrument (PerkinElmer) at 2 s reading time per well. […]

N2 mutant WIA = assay: AlphaScreen N-terminal homologous interaction, N2 mutant WIA; assay type: binding, human; details: nominally Ca^2+-free buffers
Description: (§4) Proteins were expressed in E. coli, affinity purified and biotinylated if applicable (for details see Methods S1). For protein interaction measurements, a proximity assay system based on the AlphaScreen technology (PerkinElmer) was used (see Methods S1). […] Assay buffer conditions were 50 mM Tris, pH 7.4, 100 mM KCl, and 0.1% BSA. After incubation for 90 min at room temperature, the AlphaScreen output signal was recorded in a Fusion alpha FP instrument (PerkinElmer) at 2 s reading time per well. AlphaScreen signals are given as mean±SEM in counts per second (cps) units.

wild type N2 fragment = assay: AlphaScreen N-terminal homologous interaction, wild type N2; assay type: binding, human; details: nominally Ca^2+-free buffers
Description: as §4

Substance	interaction with C2 (TRPV4 C2 fragment)	IC50 (CaM/C2 complex) [nM]	oligomeric state (N2)	IC50 (P2/C2 complex) [nM]	binding of P2 to N2 mutant WIA (N2 mutant WIA)	binding of P2 to wild type N2 (wild type N2 fragment)
N2: N-terminal TRPV4 fragment, residues 79-138 (VPNPIDLLESTLYESSVVPGPKKAPMDSLFDYGTYRHHSSDNKRWRKKIIEKQPQSPKAP; also: Flag tag; UniProt Q9HBA0 79-138, looked up, fragment)	interdomain interaction could also be shown	522	a single peak was detected at a size that corresponds to the dimeric form; also recorded: monophasic elution profile with an apparent molecular size that corresponds with a dimeric form of the protein	166	–	–
P2: N-terminal CaM binding peptide of TRPV4, residues 117-136	–	–	–	–	bound strongly	bound strongly
